Laboratory results: EP4656642A1, “ESTROGEN RECEPTOR PROTEOLYSIS TARGETING CHIMERA COMPOUND AND USE THEREOF” (GAN & LEE PHARM CO., LTD, priority 2023, dated 2024)

Tests used:
Assay type in all cases: cell-based
MCF-7 cells = assay: Inhibition of cell proliferation of MCF-7 cells (CCK-8, 9 days); details: treated for 9 days, CCK-8 kit (Table 6)
How it was run: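 Read-out was CCK-8 viability after 9-day continuous exposure (37°C, 5% CO2) of MCF-7 cells plated at 800/well in 10% FBS DMEM across several compound concentrations. Values are proliferation IC50s.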

ERα [1] = target: T1, ERα (Homo sapiens, UniProt P03372); assay: Degradation of ERα in T-47D cells (immunoblotting, 4 h); parameters: host or cells: T-47D
T1 sequence (P03372 1-595): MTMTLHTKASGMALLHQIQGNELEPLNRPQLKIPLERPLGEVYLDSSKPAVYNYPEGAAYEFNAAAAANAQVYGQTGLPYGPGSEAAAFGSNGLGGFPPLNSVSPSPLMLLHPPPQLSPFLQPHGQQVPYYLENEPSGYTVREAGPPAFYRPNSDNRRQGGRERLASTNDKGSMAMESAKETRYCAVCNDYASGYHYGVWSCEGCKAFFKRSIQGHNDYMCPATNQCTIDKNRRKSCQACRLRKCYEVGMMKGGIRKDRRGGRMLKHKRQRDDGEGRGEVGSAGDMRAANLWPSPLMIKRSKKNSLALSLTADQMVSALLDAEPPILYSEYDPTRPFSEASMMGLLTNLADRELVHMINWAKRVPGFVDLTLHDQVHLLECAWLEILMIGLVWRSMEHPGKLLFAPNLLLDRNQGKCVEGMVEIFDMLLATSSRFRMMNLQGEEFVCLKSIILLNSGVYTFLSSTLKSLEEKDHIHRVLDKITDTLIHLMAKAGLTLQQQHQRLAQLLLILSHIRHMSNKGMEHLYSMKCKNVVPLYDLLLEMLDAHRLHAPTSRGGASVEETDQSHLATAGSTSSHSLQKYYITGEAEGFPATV
How it was run: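 ERα protein levels were assessed by immunoblot of RIPA lysates (with protease inhibitor) after 4 h exposure at 37°C. Compound was added in DMSO to T-47D cells at final concentrations of 0.15-1000 nM.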

ERα [2] = target: T1, ERα; assay: Degradation of ERα in MCF-7 cells (immunoblotting, 4 h)
How it was run: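 Degradation rate reflects ERα band intensity, corrected to an internal reference protein, relative to control. Values come from Western blotting of lysates from MCF-7 cells exposed 4 h at 37°C to compounds at final concentrations of 0.15-1000nM.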

Row | Structure (SMILES) | IC50 (MCF-7 cells) [nM] | Degradation rate (%) of ERα in T-47D cells (ERα [1]; 1nM compound) [%] | Degradation rate (%) of ERα in T-47D cells (ERα [1]; 10nM compound) [%] | Degradation rate (%) of ERα in MCF-7 cells (ERα [2]; 1nM compound) [%] | Degradation rate (%) of ERα in MCF-7 cells (ERα [2]; 10nM compound) [%]
1 | O=C1CCC(N2C(=O)c3ccc4c(c3C2=O)OCC42CCN(C3CCC4(CC3)CN(c3ccc([C@@H]5c6ccc(O)cc6CC[C@@H]5c5ccccc5)cc3)C4)CC2)C(=O)N1 (some centres unmarked) [L7] | 510 | 11 | 34 | 4 | -4
2 | CN(C(=O)CN1CCC2(CC1)COc1c2ccc2c1C(=O)N(C1CCC(=O)NC1=O)C2=O)C1CCC2(CC1)CN(c1ccc([C@@H]3c4ccc(O)cc4CC[C@@H]3c3ccccc3)cc1)C2 (some centres unmarked) [K44] | 936 | 36 | 66 | 1 | 56
3 | COC1(CN2CCC3(CC2)COc2c3ccc3c2CN(C2CCC(=O)NC2=O)C3=O)CCN(C(=O)C2CCN(c3ccc([C@@H]4c5ccc(O)cc5CC[C@@H]4c4ccccc4)cc3)CC2)CC1 (some centres unmarked) [D6] | 33000 | 59 | 84 | 38 | 59
4 | O=C1CCC(N2Cc3c(ccc4c3OCC43CCN(CC(=O)N4CCC(Oc5ccc([C@@H]6c7ccc(O)cc7CC[C@@H]6c6ccccc6)cc5)CC4)CC3)C2=O)C(=O)N1 (some centres unmarked) [H59] | 7360 | 61 | 46 | 40 | 34
5 | O=C1CCC(N2Cc3c(ccc4c3OCC43CCN(C4CCN(C(=O)C5CCN(c6ccc([C@@H]7c8ccc(O)cc8CC[C@@H]7c7ccccc7)cc6)CC5)CC4)CC3)C2=O)C(=O)N1 (some centres unmarked) [A78] | 3.35 | 79 | 89 | 64 | 78
6 | O=C1CCC(N2Cc3c(ccc4c3OC3(CC4)CCN(C4CCC5(CC4)CN(c4ccc([C@@H]6c7ccc(O)cc7CC[C@@H]6c6ccccc6)cc4)C5)CC3)C2=O)C(=O)N1 (some centres unmarked) [L22] | 111 | -7 | 9 | 3 | 18
7 | C[C@@H]1Cc2c([nH]c3ccccc23)[C@@H](c2c(F)cc(N3CCC4(CCN(C(=O)CN5CCC6(CC5)COc5c6ccc6c5CN(C5CCC(=O)NC5=O)C6=O)CC4)CC3)cc2F)N1CC(F)F (some centres unmarked) [A118] | 16.3 | 38 | 79 | -7 | 55
8 | O=C1CCC(N2Cc3c(ccc4c3OCC43CCN(CC(=O)N4CC5(C4)CN(c4ccc([C@@H]6c7ccc(O)cc7CC[C@@H]6c6ccccc6)cc4)C5)CC3)C2=O)C(=O)N1 (some centres unmarked) [B21] | 312 | 66 | 83 | 38 | 55
9 | C[C@@H]1Cc2c([nH]c3ccccc23)[C@@H](c2c(F)cc(N3CCC4(CC3)CC(N3CC[C@@H](N5CCC6(CC5)COc5c6ccc6c5CN(C5CCC(=O)NC5=O)C6=O)[C@@H](F)C3)C4)cc2F)N1CC(F)F (some centres unmarked) [D10] | 12.5 | 24 | 77 | 3 | 58
10 | O=C1CCC(N2C(=O)c3cc4c(cc3C2=O)OC2(CCN(C(=O)CN3CCC5(CC3)CCN(c3ccc([C@@H]6c7ccc(O)cc7CC[C@@H]6c6ccccc6)cc3)CC5)CC2)C4)C(=O)N1 (some centres unmarked) [A64] | 206 | 12 | 61 | 13 | 47
11 | CN(C1CCN(c2ccc([C@@H]3c4ccc(O)cc4CC[C@@H]3c3ccccc3)cc2)CC1)[C@H]1CC[C@@H](C(=O)N2CCC3(CC2)COc2c3ccc3c2CN(C2CCC(=O)NC2=O)C3=O)CC1 (some centres unmarked) [B35] | 49.7 | 74 | 88 | 60 | 72
12 | O=C1CCC(N2Cc3c(ccc4c3OC3(CC4)CCN(C4CN(C5CCN(c6ccc([C@@H]7c8ccc(O)cc8CC[C@@H]7c7ccccc7)cc6)CC5)C4)CC3)C2=O)C(=O)N1 (some centres unmarked) [K2] | 1990 | 8 | 16 | -10 | 3
13 | C[C@@H]1Cc2c([nH]c3ccccc23)[C@@H](c2c(F)cc(N3CCC(N4CC[C@@H](N5CCC6(CC5)COc5c6ccc6c5CN(C5CCC(=O)NC5=O)C6=O)[C@@H](F)C4)CC3)cc2F)N1CC(F)F (some centres unmarked) [D11] | 19.2 | 52 | 82 | 6 | 66
14 | O=C1CCC(N2Cc3cc4c(cc3C2=O)CCC2(CN(C(=O)CN3CCC5(CCN(c6ccc([C@@H]7c8ccc(O)cc8CC[C@@H]7c7ccccc7)cc6)CC5)C3)C2)O4)C(=O)N1 (some centres unmarked) [A76] | 19300 | 40 | 68 | -6 | 12
15 | O=C1CCC(N2Cc3c(ccc4c3OC3(CC4)CCN(C(=O)CN4CCC5(CC4)CCN(c4ccc([C@@H]6c7ccc(O)cc7CC[C@@H]6c6ccccc6)cc4)CC5)CC3)C2=O)C(=O)N1 (some centres unmarked) [A65] | 125 | 14 | 50 | 23 | 23
16 | O=C1CCC(N2Cc3c(ccc4c3OCC43CCN(C4CCN(C5CCN(c6ccc(C7c8ccc(O)cc8CCC7c7ccccc7)cc6)CC5)CC4F)CC3)C2=O)C(=O)N1 (centres unmarked) [G13] | 6.82 | 43 | 80 | 30 | 71
17 | C[C@@H]1Cc2c(ccc3[nH]ncc23)C(c2ccc(N3CCC4(CC3)CC(N3CC[C@@H](N5CCC6(CC5)COc5c6ccc6c5CN(C5CCC(=O)NC5=O)C6=O)[C@@H](F)C3)C4)cn2)N1CC(F)(F)F (some centres unmarked) [H58] | 2320 | 53 | 84 | 50 | 70
18 | O=C1CCC(N2Cc3cc4c(cc3C2=O)C2(CCN(CC3CCN(c5ccc([C@@H]6c7ccc(O)cc7CC[C@@H]6c6ccccc6)cc5)CC3)CC2)CO4)C(=O)N1 (some centres unmarked) [H6] | 4170 | -35 | -32 | -6 | 7
19 | N#CC1(C(=O)N2CCC(N3CCC4(CC3)COc3c4ccc4c3CN(C3CCC(=O)NC3=O)C4=O)CC2)CCN(c2ccc([C@@H]3c4ccc(O)cc4CC[C@@H]3c3ccccc3)cc2)CC1 (some centres unmarked) [K35] | 32.8 | 60 | 72 | 46 | 64
